Laboratory results as given in PubChem BioAssay (NCI).
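Here, GI50 denotes the concentration required for 50% inhibition of growth. TGI marks complete inhibition of growth.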

Legend:
Experiment in all cases: NCI-60 cell line screen, 384-well format
[1] = system: 786-0 renal
[2] = system: A498 renal
[3] = system: A549 NSCLC
[4] = system: ACHN renal
[5] = system: BT-549 breast
[6] = system: CAKI-1 renal
[7] = system: CCRF-CEM leukemia
[8] = system: COLO 205 colon
[9] = system: DU-145 prostate
[10] = system: HCC-2998 colon
[11] = system: HCT-116 colon
[12] = system: HCT-15 colon
[13] = system: HL-60(TB) leukemia
[14] = system: HOP-62 NSCLC
[15] = system: HOP-92 NSCLC
[16] = system: HT29 colon
[17] = system: IGROV1 ovarian
[18] = system: K-562 leukemia
[19] = system: KM12 colon
[20] = system: LOX IMVI melanoma
[21] = system: M14 melanoma
[22] = system: MALME-3M melanoma
[23] = system: MCF7 breast
[24] = system: MDA-MB-231 breast
[25] = system: MDA-MB-435 melanoma
[26] = system: MDA-MB-468 breast
[27] = system: MOLT-4 leukemia
[28] = system: NCI-H226 lung
[29] = system: NCI-H23 lung
[30] = system: NCI-H322M lung
[31] = system: NCI-H460 NSCLC
[32] = system: NCI-H522 lung
[33] = system: NCI/ADR-RES ovarian
[34] = system: OVCAR-3 ovarian
[35] = system: OVCAR-4 ovarian
[36] = system: OVCAR-5 ovarian
[37] = system: OVCAR-8 ovarian
[38] = system: PC-3 prostate
[39] = system: RXF 393 renal
[40] = system: SF-268 CNS
[41] = system: SF-295 CNS
[42] = system: SF-539 CNS
[43] = system: SK-MEL-2 melanoma
[44] = system: SK-MEL-28 melanoma
[45] = system: SK-MEL-5 melanoma
[46] = system: SK-OV-3 ovarian
[47] = system: SN12C renal
[48] = system: SNB-19 CNS
[49] = system: SR leukemia
[50] = system: SW-620 colon
[51] = system: T-47D breast
[52] = system: TK-10 renal
[53] = system: U251 glioblastoma
[54] = system: UACC-257 melanoma
[55] = system: UACC-62 melanoma
[56] = system: UO-31 renal

## CCN(C(=O)c1cc(F)ccc1Oc1cncnc1N1CC2(CCN(CC3CCC(NS(=O)(=O)CC)CC3)CC2)C1)C(C)C (configuration not stated)
[1]
  GI50: > 100 µM
  TGI: > 100 µM
[2]
  GI50: 77.3 µM
  TGI: > 100 µM
[3]
  GI50: > 100 µM
  TGI: > 100 µM
[4]
  GI50: > 100 µM
  TGI: > 100 µM
[5]
  GI50: 92.7 µM
  TGI: > 100 µM
[6]
  GI50: > 100 µM
  TGI: > 100 µM
[7]
  GI50: 10.1 µM
  TGI: 43.1 µM
[8]
  GI50: 78.3 µM
  TGI: > 100 µM
[9]
  GI50: > 100 µM
  TGI: > 100 µM
[10]
  GI50: 2.94 µM
  TGI: > 100 µM
[11]
  GI50: > 100 µM
  TGI: > 100 µM
[12]
  GI50: > 100 µM
  TGI: > 100 µM
[13]
  GI50: > 100 µM
  TGI: > 100 µM
[14]
  GI50: > 100 µM
  TGI: > 100 µM
[15]
  GI50: 2.2 µM
  TGI: 41.5 µM
[16]
  GI50: > 100 µM
  TGI: > 100 µM
[17]
  GI50: > 100 µM
  TGI: > 100 µM
[18]
  GI50: > 100 µM
  TGI: > 100 µM
[19]
  GI50: > 100 µM
  TGI: > 100 µM
[20]
  GI50: > 100 µM
  TGI: > 100 µM
[21]
  GI50: > 100 µM
  TGI: > 100 µM
[22]
  GI50: > 100 µM
  TGI: > 100 µM
[23]
  GI50: > 100 µM
  TGI: > 100 µM
[24]
  GI50: 18.7 µM
  TGI: > 100 µM
[25]
  GI50: > 100 µM
  TGI: > 100 µM
[26]
  GI50: 65.5 µM
  TGI: > 100 µM
[27]
  GI50: 1.17 µM
  TGI: 3.67 µM
[28]
  GI50: > 100 µM
  TGI: > 100 µM
[29]
  GI50: > 100 µM
  TGI: > 100 µM
[30]
  GI50: > 100 µM
  TGI: > 100 µM
[31]
  GI50: > 100 µM
  TGI: > 100 µM
[32]
  GI50: 92.3 µM
  TGI: > 100 µM
[33]
  GI50: > 100 µM
  TGI: > 100 µM
[34]
  GI50: 63.5 µM
  TGI: > 100 µM
[35]
  GI50: 82.6 µM
  TGI: > 100 µM
[36]
  GI50: > 100 µM
  TGI: > 100 µM
[37]
  GI50: > 100 µM
  TGI: > 100 µM
[38]
  GI50: > 100 µM
  TGI: > 100 µM
[39]
  GI50: 0.753 µM
  TGI: > 100 µM
[40]
  GI50: > 100 µM
  TGI: > 100 µM
[41]
  GI50: > 100 µM
  TGI: > 100 µM
[42]
  GI50: > 100 µM
  TGI: > 100 µM
[43]
  GI50: 24.5 µM
  TGI: > 100 µM
[44]
  GI50: > 100 µM
  TGI: > 100 µM
[45]
  GI50: > 100 µM
  TGI: > 100 µM
[46]
  GI50: > 100 µM
  TGI: > 100 µM
[47]
  GI50: > 100 µM
  TGI: > 100 µM
[48]
  GI50: > 100 µM
  TGI: > 100 µM
[49]
  GI50: 81.2 µM
  TGI: > 100 µM
[50]
  GI50: > 100 µM
  TGI: > 100 µM
[51]
  GI50: 72.3 µM
  TGI: > 100 µM
[52]
  GI50: > 100 µM
  TGI: > 100 µM
[53]
  GI50: > 100 µM
  TGI: > 100 µM
[54]
  GI50: > 100 µM
  TGI: > 100 µM
[55]
  GI50: > 100 µM
  TGI: > 100 µM
[56]
  GI50: > 100 µM
  TGI: > 100 µM
